Test results published in patent publication US7723376B2, “2-oxo-heterocyclic compounds and pharmaceutical compositions” (Korea Research Institute of Bioscience and Biotechnology, priority 2003, dated 2010).

Tested on: PC-3 cells
Assay: Tumor cell growth inhibition, sulforhodamine B (SRB) staining
Format: cell-based
Conditions: PC-3 human prostatic carcinoma cells, 48 hrs, absorbance 540 nm, adriamycin as positive control
Method: PC-3 cells (ATCC, US), human prostatic carcinoma cell line, were cultured in RMPI 1640 supplemented with 10% fetal bovine serum.
Appropriate concentrations of cells (5×10^4 cells/ml) cultured in RMPI 1640 supplemented with 5% fetal bovine serum were poured into 96-well plate and incubated at 37° C. in 5% CO2 condition. The day after the incubation, PC-3 cells were fixed on Time zero (T0) plate by adding 50 μl/well of 50% trichloroacetic acid and the cell concentration was set to zero point by fixing the cells. In the cells treated with test samples, 50% TCA was added to each wells in 50 ul/well after 48 hrs to fix the cells. The final concentration of adding test compounds were 0.01, 0.03, 0.1, 0.3, 1 μg/ml respectively. Then, each fixed plate was washed, dried and 100 μl/well of 0.4% reaction solution containing sulforhodamine B (SRB) reagent dissolved in 0.1% acetic acid was added thereto to stain the cells. 30 minutes later, the cell was washed with 0.1% acetic acid, dried at room temperature, and 10 mM of TRIS base (pH 10.5) was added thereto to dissolve the staining agent. Finally, the absorbance detected at 540 nm was measured and the value was conversed into percentage comparing with that of control group. IC50 (μg/ml), the concentration of the group required to inhibit the cancer cell growth by 50%, was calculated from the data (AA: IC50's<1, A: IC50's<5, B: IC50's<10 and C: IC50's>10). Also, the inhibiting activity of cell growth was expressed as various symbols in accordance with the potency of examples e.g., AA: closely equivalent (1˜2 times), A: slightly weaker (3˜5 times), B: weaker (5˜10 times), C: very weaker (more than 10 times) than that of adriamycin used as a positive control group.

Row | SMILES | IC50 | Cell growth inhibition
1 | COc1ccccc1CCN1CC=C(CCC(=O)NO)C1=O [Example 36, N-hydroxy-3-{1-[2-(2-methoxy-phenyl)-ethyl]-2-oxo-2,5-dihydro-1H-pyrrol-3-yl}-propionamide] | < 5 µg/mL | –
2 | O=C(CCC1=CCN(CCCc2ccc3ccccc3c2)C1=O)NO [Example 56, N-hydroxy-3-[1-(3-naphthalene-2-yl-propyl)-2-oxo-2,5-dihydro-1H-pyrrol-3-yl]-propionamide] | – | AAA
3 | O=C(CCC1=CCN(CCCc2ccc(Cl)cc2)C1=O)NO [Example 45, 3-{1-[3-(4-chloro-phenyl)-propyl]-2-oxo-2,5-dihydro-1H-pyrrol-3-yl]-N-hydroxy-propionamide] | < 10 µg/mL | –
4 | Cc1ccc(S(=O)(=O)Nc2ccc(CN3CC=C(CCC(=O)NO)C3=O)cc2)cc1 [Example 19, N-hydroxy-3-{2-oxo-1-[4-(toluene-4-sulfonylamino)-benzyl]-2,5-dihydro-1H-pyrrol-3-yl}-propionamide] | < 10 µg/mL | –
5 | O=C(CCC1=CCN(CCc2ccc(F)cc2)C1=O)NO [Example 30, 3-{1-[2-(4-fluoro-phenyl)-ethyl]-2-oxo-2,5-dihydro-1H-pyrrol-3-yl}-N-hydroxy-propionamide] | < 5 µg/mL | –
6 | C=CCN1CCC=C(CCC(=O)NO)C1=O [Example 101, 3-(1-Allyl-2-oxo-1,2,5,6-tetrahydro-pyridin-3-yl)-N-hydroxy-propionamide] | > 10 µg/mL | –
7 | C=CCN1CC=C(CCC(=O)NO)C1=O [Example 51, 3-(1-allyl-2-oxo-2,5-dihydro-1H-pyrrol-3-yl)-N-hydroxy-propionamide] | > 10 µg/mL | –

Second part, led by results:

Row | IC50 | SMILES | Cell growth inhibition
8 | < 5 µg/mL | Cc1ccc(S(=O)(=O)Nc2ccc(CN3CCC=C(CCC(=O)NO)C3=O)cc2)cc1 [Example 77, N-hydroxy-3-2-oxo-1-[4-(toluene-4-sulfonylamino)-benzyl-1,2,5,6-tetrahydro-pyridin-3-yl]-propionamide] | –
9 | < 10 µg/mL | O=C(CCC1=CCCN(CCc2cccs2)C1=O)NO [Example 104, N-hydroxy-3-[2-oxo-1-(2-thiophen-2-yl-ethyl)-1,2,5,6-tetrahydro-pyridin-3-yl]-propionamide] | –
10 | > 10 µg/mL | O=C(O)CCC1=CCCN(Cc2ccccc2)C1=O [Example 64, 3-(1-benzyl-2-oxo-1,2,5,6-tetrahydro-pyridin-3-yl)-propionic acid] | –
11 | > 10 µg/mL | O=C(CC1=CCN(Cc2ccccc2)C1=O)NO [Example 20, 2-(1-benzyl-2-oxo-2,5-dihydro-1H-pyrrol-3-yl)-N-hydroxy-acetamide] | –
12 | > 10 µg/mL | CC(=O)Nc1ccc(CN2CCC=C(CCC(=O)NO)C2=O)cc1 [Example 74, 3-[1-(4-acetylamino-benzyl)-2-oxo-1,2,5,6-tetrahydro-pyridin-3-yl)-N-hydroxy-propionamide] | –
13 | > 10 µg/mL | O=C(CC1=CCCN(CCCCc2ccccc2)C1=O)NO [Example 86, N-hydroxy-2-[2-oxo-1-(4-phenyl-butyl)-1,2,5,6-tetrahydro-pyridin-3-yl]-N-hydroxy-acetamide] | –
14 | < 1 µg/mL | O=C(CCC1=CCN(CCc2ccc3ccccc3c2)C1=O)NO [Example 53, N-hydroxy-3-[1-(2-naphthalene-2-yl-ethyl)-2-oxo-2,5-dihydro-1H-pyrrol-3-yl]-propionamide] | –
15 | < 10 µg/mL | O=C(CCC1=CCCN(Cc2ccc(NC(=O)c3ccccc3)cc2)C1=O)NO [Example 75, N-4-[5-(2-hydroxycarbamoyl-ethyl)-6-oxo-3,6-dihydro-2-pyridin-1-yl-methyl]-phenyl-benzamide] | –
16 | > 10 µg/mL | COc1ccc(CN2CCC=C(CCCC(=O)NO)C2=O)cc1 [Example 95, 4-[1-(4-methoxy-benzyl)-2-oxo-1,2,5,6-tetrahydro-pyridin-3-yl]-N-hydroxy-butylamide] | –
17 | < 5 µg/mL | O=C(CCC1=CCN(CCc2cccc(F)c2)C1=O)NO [Example 29, 3-{1-[2-(3-fluoro-phenyl)-ethyl]-2-oxo-2,5-dihydro-1H-pyrrol-3-yl}-N-hydroxy-propionamide] | –
